Laboratory results published in patent publication US11000033B2, “Ketone or oxime compound, and herbicide” (NISSAN CHEMICAL CORPORATION, priority 2014, dated 2021).

How the values were obtained:
Type in all cases: in vivo
Stellaria media = assay: Test Example 5: herbicidal effect by foliage application, plastic box (symbol P); conditions: 320 g/ha, 3 weeks after application
Method in brief: (§1)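 Herbicide, formulated as an emulsion and diluted in water, is sprayed onto the aerial parts of 14-day seedlings. These were grown at 25° C. to 30° C. in sterilized diluvial soil; effects are graded after 3 weeks.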

Veronica persica = assay: Test Example 5: herbicidal effect by foliage application, plastic box (symbol R); conditions: 320 g/ha, 3 weeks after application
Method in brief: as §1

Amaranthus retroflexus = assay: Test Example 5: herbicidal effect by foliage application, plastic box (symbol N); conditions: 320 g/ha, 3 weeks after application
Method in brief: as §1

rapeseed [1] = assay: Test Example 5: effect on crop by foliage application, plastic box (symbol g); conditions: 320 g/ha, 3 weeks after application
Method in brief: (§2)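 Sterilized diluvial soil, plastic box (21 × 13 × 7 cm); spot sowing, ~1.5 cm soil cover; greenhouse 25–30° C.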

rice = assay: Test Example 4: effect on crop by soil treatment (symbol b); conditions: application herbicide amount 320 g/ha
Method in brief: (§3)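 Crop seed is sown in spots together with several weed species in a box of sterilized diluvial soil. It is covered by about 1.5 cm of soil and kept in a greenhouse held between 25° C. and 30° C.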

rapeseed [2] = assay: Test Example 4: effect on crop by soil treatment (symbol g); conditions: application herbicide amount 320 g/ha
Method in brief: as §3

[3] = tested on: directly sowed rice plant; assay: Test Example 3: effect on crop by foliage application, Wagner pot (symbol b); conditions: application herbicide amount 320 g/ha
Method in brief: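 Greenhouse culture at 25–30 °C of seeded rice, Cyperus difformis, Leptochloa chinensis and Echinochloa crus-galli var. crus-galli, in alluvial soil held under 0.1–0.5 cm of water in a Wagner pot.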

beet = assay: Test Example 4: effect on crop by soil treatment (symbol f); conditions: application herbicide amount 320 g/ha
Method in brief: as §3

wheat = assay: Test Example 5: effect on crop by foliage application, plastic box (symbol e); conditions: 320 g/ha, 3 weeks after application
Method in brief: as §2

Monochoria vaginalis = assay: Test Example 2: herbicidal activity, application during weed generation in submerged conditions (symbol C); conditions: Table 23; application herbicide amount 320 g/ha; grade 0-5 by criteria of Test Example 1
Method in brief: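 Paddy pot test, submerged (4 cm water), alluvial soil, mixed sowing; greenhouse 25–30° C. Emulsion formulation diluted to predetermined rate, applied onto floodwater at 1–2 leaf stage. Visual herbicidal rating at 3 wk post-treatment.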

Lolium multiflorum Lam. [4] = assay: Test Example 4: herbicidal effect by soil treatment (symbol K); conditions: application herbicide amount 320 g/ha
Method in brief: (§4)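 Seeds were sown in sterilized diluvial soil, covered with about 1.5 cm of soil, and the soil surface was sprayed with a water-diluted emulsion of the compound at a predetermined rate. Plants grew in a greenhouse at 25° C. to 30° C.; effects were scored visually 3 weeks after application.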

Chenopodium album = assay: Test Example 5: herbicidal effect by foliage application, plastic box (symbol O); conditions: 320 g/ha, 3 weeks after application
Method in brief: as §1

Apera spica-venti [5] = assay: Test Example 4: herbicidal effect by soil treatment (symbol L); conditions: application herbicide amount 320 g/ha
Method in brief: as §4

Abutilon theophrasti = assay: Test Example 5: herbicidal effect by foliage application, plastic box (symbol M); conditions: 320 g/ha, 3 weeks after application
Method in brief: as §1

Galium spurium = assay: Test Example 5: herbicidal effect by foliage application, plastic box (symbol Q); conditions: 320 g/ha, 3 weeks after application
Method in brief: as §1

Apera spica-venti [6] = assay: Test Example 5: herbicidal effect by foliage application, plastic box (symbol L); conditions: 320 g/ha, 3 weeks after application
Method in brief: as §1

Digitaria ciliaris [7] = assay: Test Example 4: herbicidal effect by soil treatment (symbol F); conditions: application herbicide amount 320 g/ha
Method in brief: as §4

Lolium multiflorum Lam. [8] = assay: Test Example 5: herbicidal effect by foliage application, plastic box (symbol K); conditions: 320 g/ha, 3 weeks after application
Method in brief: as §1

Avena fatua [9] = assay: Test Example 4: herbicidal effect by soil treatment (symbol I); conditions: application herbicide amount 320 g/ha
Method in brief: as §4

Digitaria ciliaris [10] = assay: Test Example 5: herbicidal effect by foliage application, plastic box (symbol F); conditions: 320 g/ha, 3 weeks after application
Method in brief: as §1

Avena fatua [11] = assay: Test Example 5: herbicidal effect by foliage application, plastic box (symbol I); conditions: 320 g/ha, 3 weeks after application
Method in brief: as §1

[12] = tested on: Echinochloa crus-galli var. crus-galli; assay: Test Example 4: herbicidal effect by soil treatment (symbol H); conditions: application herbicide amount 320 g/ha
Method in brief: as §4

Alopecurus myosuroides = assay: Test Example 4: herbicidal effect by soil treatment (symbol J); conditions: application herbicide amount 320 g/ha
Method in brief: as §4

COc1cc(C)c(C2=C(O)CC(CC(C)=O)C2=O)c(C)c1 (stereo not drawn) [7-020]
P: Stellaria media, herbicidal effect (criteria of Test Example 1) (Stellaria media): 0 (Herbicidal ratio of 5% or lower (almost no effect)) | R: Veronica persica, herbicidal effect (criteria of Test Example 1) (Veronica persica): 0 (Herbicidal ratio of 5% or lower (almost no effect)) | N: Amaranthus retroflexus, herbicidal effect (criteria of Test Example 1) (Amaranthus retroflexus): 0 (Herbicidal ratio of 5% or lower (almost no effect)) | g: rapeseed, effect on crop (criteria of Test Example 1) (rapeseed [1]): 2 (Herbicidal ratio of 20% or higher and lower than 40%) | Effect on crop grade, b: directly sowed rice plant (rice): 5 (Herbicidal ratio of 90% or more (almost completely withered)) | Effect on crop grade, g: rapeseed (rapeseed [2]): 0 (Herbicidal ratio of 5% or lower (almost no effect)) | effect on crop b (directly sowed rice plant), grade 0-5 [3]: 4 (Herbicidal ratio of 70% or higher and lower than 90%) | Effect on crop grade, f: beet (beet): 0 (Herbicidal ratio of 5% or lower (almost no effect)) | e: wheat, effect on crop (criteria of Test Example 1) (wheat): 0 (Herbicidal ratio of 5% or lower (almost no effect)) | Herbicidal effect grade, C: Monochoria vaginalis (Monochoria vaginalis): 0 (Herbicidal ratio of 5% or lower (almost no effect)) | Herbicidal effect grade, K: Lolium multiflorum Lam. (Lolium multiflorum Lam. [4]): 3 (Herbicidal ratio of 40% or higher and lower than 70%) | O: Chenopodium album, herbicidal effect (criteria of Test Example 1) (Chenopodium album): 0 (Herbicidal ratio of 5% or lower (almost no effect)) | Herbicidal effect grade, L: Apera spica-venti (Apera spica-venti [5]): 0 (Herbicidal ratio of 5% or lower (almost no effect)) | M: Abutilon theophrasti, herbicidal effect (criteria of Test Example 1) (Abutilon theophrasti): 0 (Herbicidal ratio of 5% or lower (almost no effect)) | Q: Galium spurium, herbicidal effect (criteria of Test Example 1) (Galium spurium): 0 (Herbicidal ratio of 5% or lower (almost no effect)) | L: Apera spica-venti, herbicidal effect (criteria of Test Example 1) (Apera spica-venti [6]): 3 (Herbicidal ratio of 40% or higher and lower than 70%) | Herbicidal effect grade, F: Digitaria ciliaris (Digitaria ciliaris [7]): 3 (Herbicidal ratio of 40% or higher and lower than 70%) | K: Lolium multiflorum Lam., herbicidal effect (criteria of Test Example 1) (Lolium multiflorum Lam. [8]): 4 (Herbicidal ratio of 70% or higher and lower than 90%) | Herbicidal effect grade, I: Avena fatua (Avena fatua [9]): 0 (Herbicidal ratio of 5% or lower (almost no effect)) | F: Digitaria ciliaris, herbicidal effect (criteria of Test Example 1) (Digitaria ciliaris [10]): 5 (Herbicidal ratio of 90% or more (almost completely withered)) | I: Avena fatua, herbicidal effect (criteria of Test Example 1) (Avena fatua [11]): 0 (Herbicidal ratio of 5% or lower (almost no effect)) | Herbicidal effect grade, H: Echinochloa crus-galli var. crus-galli [12]: 0 (Herbicidal ratio of 5% or lower (almost no effect)) | Herbicidal effect grade, J: Alopecurus myosuroides (Alopecurus myosuroides): 3 (Herbicidal ratio of 40% or higher and lower than 70%)

CON=C(C)C(=NOC)C1CC(O)=C(c2c(C)cc(C)cc2C)C1=O (stereo not drawn) [8-003]
P: Stellaria media, herbicidal effect grade (Stellaria media): 0 (Herbicidal ratio of 5% or lower (almost no effect)) | R: Veronica persica, herbicidal effect grade (Veronica persica): 0 (Herbicidal ratio of 5% or lower (almost no effect)) | N: Amaranthus retroflexus, herbicidal effect grade (Amaranthus retroflexus): 0 (Herbicidal ratio of 5% or lower (almost no effect)) | g: rapeseed, effect on crop grade (rapeseed [1]): 0 (Herbicidal ratio of 5% or lower (almost no effect)) | Effect on crop grade, b: directly sowed rice plant (rice): 0 (Herbicidal ratio of 5% or lower (almost no effect)) | Effect on crop grade, g: rapeseed (rapeseed [2]): 0 (Herbicidal ratio of 5% or lower (almost no effect)) | b (directly sowed rice plant) effect on crop grade ([3]; Table 24): 0 (Herbicidal ratio of 5% or lower (almost no effect)) | Effect on crop grade, f: beet (beet): 0 (Herbicidal ratio of 5% or lower (almost no effect)) | e: wheat, effect on crop grade (wheat): 0 (Herbicidal ratio of 5% or lower (almost no effect)) | Herbicidal effect grade, C: Monochoria vaginalis (Monochoria vaginalis): 0 (Herbicidal ratio of 5% or lower (almost no effect)) | Herbicidal effect grade, K: Lolium multiflorum Lam. (Lolium multiflorum Lam. [4]): 0 (Herbicidal ratio of 5% or lower (almost no effect)) | O: Chenopodium album, herbicidal effect grade (Chenopodium album): 0 (Herbicidal ratio of 5% or lower (almost no effect)) | Herbicidal effect grade, L: Apera spica-venti (Apera spica-venti [5]): 0 (Herbicidal ratio of 5% or lower (almost no effect)) | M: Abutilon theophrasti, herbicidal effect grade (Abutilon theophrasti): 0 (Herbicidal ratio of 5% or lower (almost no effect)) | Q: Galium spurium, herbicidal effect grade (Galium spurium): 0 (Herbicidal ratio of 5% or lower (almost no effect)) | L: Apera spica-venti, herbicidal effect grade (Apera spica-venti [6]): 0 (Herbicidal ratio of 5% or lower (almost no effect)) | Herbicidal effect grade, F: Digitaria ciliaris (Digitaria ciliaris [7]): 0 (Herbicidal ratio of 5% or lower (almost no effect)) | K: Lolium multiflorum Lam., herbicidal effect grade (Lolium multiflorum Lam. [8]): 2 (Herbicidal ratio of 20% or higher and lower than 40%) | Herbicidal effect grade, I: Avena fatua (Avena fatua [9]): 0 (Herbicidal ratio of 5% or lower (almost no effect)) | F: Digitaria ciliaris, herbicidal effect grade (Digitaria ciliaris [10]): 0 (Herbicidal ratio of 5% or lower (almost no effect)) | I: Avena fatua, herbicidal effect grade (Avena fatua [11]): 0 (Herbicidal ratio of 5% or lower (almost no effect)) | Herbicidal effect grade, H: Echinochloa crus-galli var. crus-galli [12]: 0 (Herbicidal ratio of 5% or lower (almost no effect)) | Herbicidal effect grade, J: Alopecurus myosuroides (Alopecurus myosuroides): 0 (Herbicidal ratio of 5% or lower (almost no effect))

CON=C(C)CC1CC(O)=C(c2c(C)cc(OCc3ccncc3)cc2C)C1=O (mixture of isomers) [6-053]
P: Stellaria media, herbicidal effect grade (Stellaria media): 0 (Herbicidal ratio of 5% or lower (almost no effect)) | R: Veronica persica, herbicidal effect grade (Veronica persica): 0 (Herbicidal ratio of 5% or lower (almost no effect)) | N: Amaranthus retroflexus, herbicidal effect grade (Amaranthus retroflexus): 0 (Herbicidal ratio of 5% or lower (almost no effect)) | g: rapeseed, effect on crop grade (rapeseed [1]): 3 (Herbicidal ratio of 40% or higher and lower than 70%) | b: directly sowed rice plant, effect on crop grade (rice): 2 (Herbicidal ratio of 20% or higher and lower than 40%) | g: rapeseed, effect on crop grade (rapeseed [2]): 0 (Herbicidal ratio of 5% or lower (almost no effect)) | effect on crop b (directly sowed rice plant), grade 0-5 [3]: 5 (Herbicidal ratio of 90% or more (almost completely withered)) | f: beet, effect on crop grade (beet): 0 (Herbicidal ratio of 5% or lower (almost no effect)) | e: wheat, effect on crop grade (wheat): 0 (Herbicidal ratio of 5% or lower (almost no effect)) | Herbicidal effect grade, C: Monochoria vaginalis (Monochoria vaginalis): 2 (Herbicidal ratio of 20% or higher and lower than 40%) | K: Lolium multiflorum Lam., herbicidal effect grade (Lolium multiflorum Lam. [4]): 0 (Herbicidal ratio of 5% or lower (almost no effect)) | O: Chenopodium album, herbicidal effect grade (Chenopodium album): 0 (Herbicidal ratio of 5% or lower (almost no effect)) | L: Apera spica-venti, herbicidal effect grade (Apera spica-venti [5]): 0 (Herbicidal ratio of 5% or lower (almost no effect)) | M: Abutilon theophrasti, herbicidal effect grade (Abutilon theophrasti): 0 (Herbicidal ratio of 5% or lower (almost no effect)) | Q: Galium spurium, herbicidal effect grade (Galium spurium): 0 (Herbicidal ratio of 5% or lower (almost no effect)) | L: Apera spica-venti, herbicidal effect grade (Apera spica-venti [6]): 4 (Herbicidal ratio of 70% or higher and lower than 90%) | F: Digitaria ciliaris, herbicidal effect grade (Digitaria ciliaris [7]): 4 (Herbicidal ratio of 70% or higher and lower than 90%) | K: Lolium multiflorum Lam., herbicidal effect grade (Lolium multiflorum Lam. [8]): 5 (Herbicidal ratio of 90% or more (almost completely withered)) | I: Avena fatua, herbicidal effect grade (Avena fatua [9]): 1 (Herbicidal ratio of 5% or higher and lower than 20%) | F: Digitaria ciliaris, herbicidal effect grade (Digitaria ciliaris [10]): 5 (Herbicidal ratio of 90% or more (almost completely withered)) | I: Avena fatua, herbicidal effect grade (Avena fatua [11]): 3 (Herbicidal ratio of 40% or higher and lower than 70%) | H: Echinochloa crus-galli var. crus-galli, herbicidal effect grade [12]: 2 (Herbicidal ratio of 20% or higher and lower than 40%) | J: Alopecurus myosuroides, herbicidal effect grade (Alopecurus myosuroides): 0 (Herbicidal ratio of 5% or lower (almost no effect))
